Consider two molecules from patent US10351525B2, “Beta lactamase inhibitors” (Oxford University Innovation Limited, priority 2014, dated 2019).

The structures appear in SMILES notation.

Holding throughout (assay type): biochemical
The target in test [1] is TEM-1 (Escherichia coli, UniProt P62593). Description: Inhibition studies TEM-1. On Inhibition verdict: key: N.I.—not inhibited. To be noted: for Inhibition verdict: TEM-1, 100 μM; for remaining activity at 100 µM: read-out: RA (residual activity). Here is the method:
(§1) To investigate the selectivity of ML302/ML302F for bacterial MBLs, activity was tested against TEM-1 (a Class A SBL), PBP-5 (penicillin-binding protein 5 or dacA) and PBP-6 (penicillin-binding protein 6, or dacC) from E. coli, hHAT (human histone acetyltransferase) and hHDAC (human histone deacetylase). TEM-1, PBP-5 and -6 and hHAT are known to be inhibited by rhodanines. Selectively against hACE-2 (Angiotensin converting enzyme 2) and hHAGH (Hydroxyacylglutathione hydrolase, human Glyoxylase II) was also tested.
The inhibition analysis for TEM-1 was performed using the modified method that was previously described for MBLs.21 In brief: ML302 and ML302F were screened at a single concentration (100 μM) in duplicate. Inhibition was tested by pre-incubation of the appropriate amount of TEM-1 (1 nM final concentration) and ML302 or ML302F in the assay buffer (50 mM HEPES-NaOH buffer (pH 7.2) supplemented with 0.01% Triton 100) for 10 min. at r.t. prior to the initiation of the assay by the addition of FC5 ((6R,7R)-8-Oxo-3-(((2-oxo-2H-chromen-7-yl)oxy)methyl)-7-(2-phenylacetamido)-5-thia-1-azabicyclo[4.2.0]oct-2-ene-2-carboxylic acid 5,5-dioxide)21 (10 μM final concentration). The hydrolysis of FC5 was monitored by following the variation on fluorescence reading (380 nm—excitation and 460 nm—emission) using 384 well flat bottom plates (Greiner Bio-One). The experiments were performed on a PHERAstar FS-BMG Labtech microplate reader at r.t. (24-25° C.). All enzymes and inhibitors were prepared in the assay buffer.

Test [2] concerns the target PBP5 (dacA) from E. coli (Escherichia coli, UniProt P0AEB2). Put plainly: Inhibition studies for penicillin binding proteins, PBP5. On Inhibition verdict: key: N.I.—not inhibited. To be noted: for remaining activity at 100 µM: read-out: RA (residual activity). Here is the method:
as §1
The inhibition analyses were performed using the method previously described for PBP-3 (van Berkel, S. S. et al. Binding of (5 S)-penicilloic acid to penicillin binding protein 3.ACS Chem. Biol. 8, 2112-2116 (2013)). In brief: ML302 and ML302F were initially screened at a single concentration (100 μM) in duplicate. Inhibition of the PBP acylation rate by the chromogenic β-lactam Nitrocefin was determined by pre-incubation of the appropriate amount of enzyme (dacA 2 μM and dacC 6.8 μM, respectively) and inhibitor in the assay buffer (50 mM HEPES-NaOH buffer (pH 7.2) supplemented with 200 mM NaCl and 0.01% Triton 100) for 10 min. at r.t. prior to the initiation of the assay by the addition of nitrocefin (100 μM final concentration). The hydrolysis of Nitrocefin was monitored by following the variation in absorbance at 492 nm using 96 well flat bottom plates (UV-STAR Microplate (655801) or Greiner Bio-One). The experiments were performed using a PHERAstar FS—BMG Labtech microplate reader (using path length correction) at r.t. (24-25° C.). All enzymes and inhibitors were prepared in the assay buffer.

In test [3] the target is T1, hACE-2 (Homo sapiens, UniProt Q9BYF1).
T1 construct: purchased R&D Systems 933-ZN
T1 sequence (Q9BYF1 18-740 limits assumed): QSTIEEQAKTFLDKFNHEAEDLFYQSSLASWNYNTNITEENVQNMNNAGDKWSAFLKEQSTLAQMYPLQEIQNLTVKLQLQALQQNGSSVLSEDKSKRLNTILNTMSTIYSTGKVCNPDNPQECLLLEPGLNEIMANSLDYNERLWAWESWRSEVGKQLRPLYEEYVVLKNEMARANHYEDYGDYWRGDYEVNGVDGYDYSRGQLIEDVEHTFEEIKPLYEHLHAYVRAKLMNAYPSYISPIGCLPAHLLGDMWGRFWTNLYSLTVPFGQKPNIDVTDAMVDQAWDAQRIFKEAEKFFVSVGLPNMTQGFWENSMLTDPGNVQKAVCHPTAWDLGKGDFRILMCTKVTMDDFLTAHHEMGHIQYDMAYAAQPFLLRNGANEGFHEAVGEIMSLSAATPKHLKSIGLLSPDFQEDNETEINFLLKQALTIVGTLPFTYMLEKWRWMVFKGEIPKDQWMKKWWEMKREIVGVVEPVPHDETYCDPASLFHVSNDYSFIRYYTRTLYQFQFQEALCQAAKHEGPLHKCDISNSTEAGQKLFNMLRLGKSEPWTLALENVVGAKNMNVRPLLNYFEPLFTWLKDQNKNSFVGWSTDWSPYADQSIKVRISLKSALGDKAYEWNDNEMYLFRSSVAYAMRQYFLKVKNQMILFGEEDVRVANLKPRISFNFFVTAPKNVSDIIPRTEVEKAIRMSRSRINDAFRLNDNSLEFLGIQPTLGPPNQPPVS
Description: hACE 2 assay. On Inhibition verdict: key: N.I.—not inhibited. As to conditions: for remaining activity at 100 µM: read-out: RA (residual activity). Here is the method: as §1
The inhibition analyses for human histone acetyltransferases (HAT), HDAC hHDAC (human histone deacetylase), hACE-2 (Angiotensin converting enzyme 2) and hHAGH (Hydroxyacylglutathione hydrolase, human Glyoxylase II) were performed using the commercially available HAT Assay Kit (Active Motif, catalogue No. 56100 (2009)), hHDAC (Active Motif, catalogue No. 56200 (2013)), hACE-2 (ACE-2 (R&D Systems) and hHAGH ((R&D Systems).
hACE 2 Assay (R&D systems):
• Assay Buffer: 75 mM Tris, 1 M NaCl, pH 7.5 • Recombinant Human ACE-2 (rhACE-2) (Catalog #933-ZN) • Substrate: MCA-Tyr-Val-Ala-Asp-Ala-Pro-Lys(DNP)-OH (Catalog # ES007), 10 mM stock in DMSO • F16 Black Maxisorp Plate (Nunc, Catalog #475515) • Fluorescent Plate Reader (Model: SpectraMax Gemini EM by Molecular Devices) or equivalent Assay: 1. Dilute rhACE-2 to 0.2 ng/μL in Assay Buffer. 2. Dilute Substrate to 40 μM in Assay Buffer. 3. Load in a black well plate 50 μL of […], and start the reaction by adding 50 μL of 40 μM Substrate. As a control load […] Substrate with 50 μL of Assay Buffer. 4. Read at excitation and emission wavelengths of 320 nm and 405 nm (top read), respectively in kinetic mode for 5 minutes. 5.

TEM-1, sequence (P62593 24-286 limits assumed): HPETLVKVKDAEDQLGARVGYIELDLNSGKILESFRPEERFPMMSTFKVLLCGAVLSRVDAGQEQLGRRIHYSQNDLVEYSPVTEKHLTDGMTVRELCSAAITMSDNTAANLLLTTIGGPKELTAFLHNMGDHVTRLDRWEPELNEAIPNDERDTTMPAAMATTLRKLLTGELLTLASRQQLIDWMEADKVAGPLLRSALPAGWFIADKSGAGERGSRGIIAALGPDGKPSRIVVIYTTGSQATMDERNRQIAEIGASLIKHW
PBP5 (dacA) from E. coli, sequence (P0AEB2 30-403): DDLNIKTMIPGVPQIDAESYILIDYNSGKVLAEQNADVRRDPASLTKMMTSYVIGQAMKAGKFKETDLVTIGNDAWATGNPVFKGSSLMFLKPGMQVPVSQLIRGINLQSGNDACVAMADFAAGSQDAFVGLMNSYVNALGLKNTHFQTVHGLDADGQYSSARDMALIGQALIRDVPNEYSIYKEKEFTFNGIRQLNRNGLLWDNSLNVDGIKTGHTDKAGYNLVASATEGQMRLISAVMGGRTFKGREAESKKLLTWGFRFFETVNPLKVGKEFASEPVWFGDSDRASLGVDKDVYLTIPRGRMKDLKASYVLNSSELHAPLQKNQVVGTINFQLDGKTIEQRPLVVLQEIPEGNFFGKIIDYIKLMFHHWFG

In the case of `CN1CCN(NC(=O)CN2C(=O)C(=Cc3c(Cl)ccc(Cl)c3Cl)SC2=S)CC1` (mixture of isomers) [ML302, N-(4-Methylpiperazin-1-yl)-2-(4-oxo-2-thioxo-5-(2,3,6-trichlorobenzylidene)thiazolidin-3-yl)acetamide], in test [1], the Inhibition verdict result is listed as “N.I” and the remaining activity at 100 µM stood at 98.6 ± 7.1%. In test [2], the remaining activity at 100 µM was 105 ± 5.7%. In addition, in test [3] (100 μM), the “RA (residual activity)” value is given as 73 ± 9 ^ % and the remaining activity at 100 µM was around 75%.

Regarding `O=C(O)C(S)=Cc1c(Cl)ccc(Cl)c1Cl` (racemic) [ML302F, 2-Mercapto-3-(2,3,6-trichlorophenyl)acrylic acid], the Inhibition verdict entry in test [1], in test [2] (100 μM) and in test [3] was “N.I” throughout. Also, the values for the remaining activity at 100 µM in test [1], in test [2] and in test [3] (100 μM) were 99.6 ± 3.1%, 99.2 ± 6.4% and 99 ± 4%, respectively.
